These results are taken from patent US20020183725A1, “Masking Agent” (priority 2001, published 2002).

A short description of data set [1]: Fluorescence under the incident laser beam. The format is physicochemical. Particulars: laser beam incident on it. The source says: This would be a useful property in PTK.
Data set [2] can be described thus: Light absorption study of masking solutions with laser radiation (Beer's law, transmission vs. concentration). The data set is classed as physicochemical. The settings on record: 213 nm laser wavelength; reciprocal of absorption coefficient.
Protocol: Light absorbent studies were carried out using 213 nm radiation produced as the fifth harmonic wavelength of the fundamental 1064 nm wavelength of an Nd:YAG laser, with a pulse duration of 6 ns and repetition rate of 20 Hz. The pulse energy of the laser was monitored using an energy detector and a storage oscilloscope. The energy of the laser was obtained from the amplitude of the voltage signal delivered from the detector.
Beer's Law states that if light is passed through solution, energy is attenuated according to the formula:
Where: αM is the molar absorption coefficient in M^−1 cm^−1
C is the concentration in moles per liter
Ef and Ei are the final and initial pulse energies respectively.
In order to determine the amount of light absorbed (A) by the solution the molar absorption co-efficient is found from the gradient of the log-linear plot of Beer's law.
The absorption coefficient (α cm^−1) can then be calculated by multiplying the molar absorption coefficient by the concentration. Once the absorption coefficient is obtained, the penetration depth can be calculated from the reciprocal of this value.
Readings were taken for BSS maintaining the same dilutions. […] Five random readings were taken for each dilution and the mean calculated, in order to reduce the error from inter-pulse variations. […]

As to `CC1COc2c(N3CCN(C)CC3)c(F)cc3c(=O)c(C(=O)O)cn1c23` (centres unmarked) [Ofloxacin, 9-fluoro-2,3-dihydro-3-methyl-10-(4-methyl-1-piperazinyl)-7-oxo-7H-pyrido[1,2,3-de][1,4]benzoxazine-6-carboxylic acid], in data set [1], the “Fluorescence when the laser beam is incident” value is given as “fluoresces”. The “Penetration Depth” value in data set [2] worked out at 50.3 μm.
